Measurements published in patent publication US9265771B2, “Method for treating Lyme disease” (Zoetis Services LLC, priority 2012, dated 2016).
Values joined by “and” are separate entries in the source; they are usually repeats but may differ in a detail not shown here. Equal entries are not always repeated.

Key:
[1] = system: B. burgdorferi sensu stricto (B31 strain); assay: In-vitro assessment of cefovecin efficacy (live spirochetes in culture by light microscopy); assay type: cell-based, Borrelia burgdorferi; details: for Number of B. burgdorferi spirochetes per field-of-view (geometric mean per ten field of views): cultures A, C
Protocol: B. burgdorferi sensu stricto (B31 strain) was cultured. The experimental (triplicate) groups included a control, 0.02 μg/mL cefovecin, and 2 μg/mL cefovecin. Cultures were viewed by light microscopy at 0, 6, 24, 30, 48, and 54 hours post inoculation to assess number of live spirochetes (Table 1).

B. burgdorferi [2] = assay: Study A: SNAP-4Dx ELISA in tick-infected dogs; assay type: in vivo, beagle dogs; details: N=8
Description: Three outer surface proteins (Osp) on B. burgdorferi are important for diagnosis and prevention, and are expressed by the organism in response to its local environment. […] OspF is another surface protein that is generally observed in late-stage disease. The C in […] refers to a 25-amino acid, C6 peptide in the sixth invariable region of an outer membrane lipoprotein (VIsE). Antibody against C6 is highly accurate as a serologic diagnosis of Lyme disease independent of a subject's (e.g., canine) vaccination status. Further, the generation of C6 antibodies implies an active infection with viable spirochetes. Serological methods for detecting B. burgdorfer/Lyme disease were conducted using the IDEXX qualitative SNAP-4Dx ELISA and the Quantitative C6 (Quant C6 or QC6) diagnostic kits, which are enzyme linked immunosorbent assays against the previously described 25-amino-acid C6 peptide. […]
Twenty-three adult female beagle dogs were used in this study; all were sero-negative for Borrelia, not vaccinated with any Borrelia spp vaccines, and acclimated at the study facility for seven days prior to any study activities. […] Dogs were monitored 21-days post-challenge for pyrexia, and the entire post-challenge period for clinical signs of Lyme disease (lameness, ataxia, anorexia, lymphadenopathy and depression). […]

B. burgdorferi [3] = assay: Study A: bacterial culture of skin biopsy samples for spirochetes; assay type: in vivo, beagle dogs
Protocol: Twenty-three adult female beagle dogs were used in this study; all were sero-negative for Borrelia, not vaccinated with any Borrelia spp vaccines, and acclimated at the study facility for seven days prior to any study activities. The study was conducted under National Research Council guidelines (1996. Dogs were randomized to a non-infected control (n=7 dogs) group, or infected groups (n=8 dogs/region) using ticks from two regions of the USA, Region A (New England (NE), i.e., Rhode Island) and Region B (Midwest (MW), i.e., Wisconsin). Dogs were infected on Day 0 with up to 30 Ixodes scapularis ticks per dog. Tick attachment was monitored daily and after nine days, remaining ticks were harvested and all dogs were treated with two topical applications of an approved acaricide observing a 30-day interval between applications. Dogs were monitored 21-days post-challenge for pyrexia, and the entire post-challenge period for clinical signs of Lyme disease (lameness, ataxia, anorexia, lymphadenopathy and depression).
Blood was collected from each dog weekly to Day 28, then every two-weeks for the remainder of the study (166 days). […] Two skin punch biopsies were collected near tick attachment sites from each dog every 28 days post-challenge for bacterial culture.
On Days 83 and 97, Convenia was administered (8 mg/kg bodyweight; subcutaneous injection). Treated dogs, 8 B. burgdorferi-positive and 4 controls, were compared to untreated cohorts (8 B. burgdorferi-positive, and 3 controls). Comparisons included serology, skin culture results and joint pathology.

B. burgdorferi [4] = assay: Study B: SNAP-4Dx ELISA in tick-infected dogs; assay type: in vivo, beagle dogs; details: for SNAP-4Dx Positives, Number of Dogs: N = 8/group
Description: (§1) Three outer surface proteins (Osp) on B. burgdorferi are important for diagnosis and prevention, and are expressed by the organism in response to its local environment. […] OspF is another surface protein that is generally observed in late-stage disease. The C in […] refers to a 25-amino acid, C6 peptide in the sixth invariable region of an outer membrane lipoprotein (VIsE). Antibody against C6 is highly accurate as a serologic diagnosis of Lyme disease independent of a subject's (e.g., canine) vaccination status. Further, the generation of C6 antibodies implies an active infection with viable spirochetes. Serological methods for detecting B. burgdorfer/Lyme disease were conducted using the IDEXX qualitative SNAP-4Dx ELISA and the Quantitative C6 (Quant C6 or QC6) diagnostic kits, which are enzyme linked immunosorbent assays against the previously described 25-amino-acid C6 peptide. QC6 ELISA data, units/mL, are useful for guidance in initiating and evaluating response to therapy (See Levy S A, O'Connor T P, Hanscom J L, Shields P, et al. Quantitative measurement of a C6 antibody following antibiotic treatment of Borrelia burgdorferi antibody-positive, nonclinical dogs. Clin Vacc Immunol 2008; 15(1):115-119 and Littman M P, Goldstein R E, Labato M A, et al. ACVIM Small Animal Concensus Statement on Lyme Disease in Dogs: Diagnosis, Treatment and Prevention. J Vet Intern Med 2006; 20: 422-434).
(§2) Thirty-two (18 male and 14 female) beagle dogs were sero-negative for Borrelia burgdorferi, not vaccinated with any Borrelia spp vaccines, and acclimated at the study facility for seven days. The study was conducted under National Research Council guidelines (1996). […] Field-caught Ixodes from the northeast USA were placed on the dogs without containment chambers for 10 days; after ticks fed to repletion, dogs were treated with two applications of an approved topical acaricide with a 30-day interval between applications.
(§3) Forty days post-challenge, and prior to antibiotic treatments, blood was collected from each dog as were two skin biopsy punch samples near tick attachment sites. Blood was collected approximately monthly post-treatment. Skin biopsies were taken near the tick attachment site on Days 48/49, 118, 146, 180, and 315. Serum antibodies to Borrelia were assayed using the IDEXX SNAP-4Dx and QC6 ELISA. In cooperation with Cornell University, serum samples were analyzed using fluorescent-bead-based multiplex assays detecting antibodies against B. burgdorferi outer surface proteins OspA, OspC, and OspF. Data were expressed as median fluorescent intensities (MFI), and shown to be specific and sensitive to provide interpretative guidelines regarding infection. The skin biopsies were collected for a polymerase chain reaction (PCR; FlaB) assay and cultured for spirochete detection. At the end of the study, blood and skin biopsies were collected and synovial tissue from the joints were harvested at necropsy.
(§4) On Day 75 and Day 89 Convenia was administered to the eight dogs in T04 (8 mg/kg bodyweight; subcutaneous injection). The other treated groups received their respective regimens daily and orally for 30 days from Days 75 to 104. […] Dogs in T01 served as infected, untreated, controls. Inter-treatment comparisons to evaluate antibiotic efficacy included clinical signs, serology, culture results and pathology.

B. burgdorferi [5] = assay: Study B: QC6 ELISA in tick-infected dogs; assay type: in vivo, beagle dogs; details: 8 dogs/group
Description: as §1, §2, §3, §4

[6] = system: B. burgdorferi outer surface protein OspC; assay: Study B: fluorescent-bead-based multiplex assay, antibodies against OspC; assay type: in vivo, beagle dogs; details: Day 111
Protocol: as §2
as §3, with “At the end of the study, blood and skin biopsies were collected and synovial tissue from the joints were harvested at necropsy.” left out

[7] = dog, in vivo, sc, 8 mg/kg
Protocol: On Days 83 and 97, Convenia was administered (8 mg/kg bodyweight; subcutaneous injection). Treated dogs, 8 B. burgdorferi-positive and 4 controls, were compared to untreated cohorts (8 B. burgdorferi-positive, and 3 controls).

[8] = following subcutaneous injection; cited from earlier work
[9] = prior to treatment, of eight dogs

For `CO/N=C(\C(=O)N[C@@H]1C(=O)N2C(C(=O)[O-])=C([C@@H]3CCCO3)CS[C@H]12)c1csc(N)n1.[Na+]` [Convenia, (6R,7R)-7-[[(2Z)-(2-amino-4-thiazolyl)(methoxyimino)acetyl]-amino]-8-oxo-3-[(2S)-tetrahydro-2-furanyl]-5-thia-1-azabicyclo[4.2.0]oct-2-ene-2-carboxylic acid, monosodium salt], the “Number of B. burgdorferi spirochetes per field-of-view (geometric mean per ten field of views)” value (“Number … (geometric mean per ten field of views)” for short) ([1]; 0.02 μg/mL, 0 hours) was 0, the “Number … (geometric mean per ten field of views)” value ([1]; 0.02 μg/mL, 24 hours, listed as cefovecin, monosodium salt) was 1.7 and 2.1 and 2.0 and the “Number … (geometric mean per ten field of views)” value ([1]; 0.02 μg/mL, 48 hours, listed as cefovecin, monosodium salt) was 7.2 and 4.1 and 5.9. The “Number … (geometric mean per ten field of views)” value ([1]; 0.02 μg/mL, 54 hours, listed as cefovecin, monosodium salt) was 8.1 and 10.2 and 9.0, the “Retardation of growth of B. burgdorferi” value ([1]; 0.02 μg/mL, in 54 hours) was “at least 30%” and the “Time after which B. burgdorferi is eliminated in culture” value ([1]; 2 μg/mL) was “about 24 hours”. The “Number … (geometric mean per ten field of views)” value ([1]; 2 μg/mL, 0 hours) was 0, the “Number … (geometric mean per ten field of views)” value ([1]; 2 μg/mL, 30 hours) was 0 and the “Number … (geometric mean per ten field of views)” value ([1]; 2 μg/mL, 48 hours) was 0. The “Number … (geometric mean per ten field of views)” value ([1]; 2 μg/mL, 54 hours) was 0, the “Dogs SNAP-4Dx positive for B. burgdorferi” value (B. burgdorferi [2]; prior to administration of Convenia on Day 83) was 100% and the “Number of dogs remaining SNAP-4Dx positive” value (B. burgdorferi [2]; through the study (Day 166), 8 mg/kg sc Days 83 and 97) was “five to seven”. The “Bacterial culture of skin for spirochetes” value (B. burgdorferi [3]; post-treatment (Days 111 to 166), 8 mg/kg sc Days 83 and 97) was “all were negative on bacterial culture”, the “Dogs culture-positive for spirochetes from skin” value (B. burgdorferi [3]; [9]) was 88% and the “Number of dogs culture-positive for spirochetes from skin” value (B. burgdorferi [3]; [9]) was “Seven”. The “SNAP-4Dx Positives, Number of Dogs” value (B. burgdorferi [4]; Day 48 (pre-treatment; antibiotics from Day 75)) was 6, the “SNAP-4Dx Positives, Number of Dogs” value (B. burgdorferi [4]; Day 111) was 5 and the “SNAP-4Dx Positives, Number of Dogs” value (B. burgdorferi [4]; Day 145) was 1. The “SNAP-4Dx Positives, Number of Dogs” value (B. burgdorferi [4]; Day 179) was 2, the “SNAP-4Dx Positives, Number of Dogs” value (B. burgdorferi [4]; Day 221) was 0 and the “SNAP-4Dx Positives, Number of Dogs” value (B. burgdorferi [4]; Day 251) was 0. The “SNAP-4Dx Positives, Number of Dogs” value (B. burgdorferi [4]; Day 281) was 0, the “SNAP-4Dx Positives, Number of Dogs” value (B. burgdorferi [4]; Day 315) was 0 and the “SNAP-4Dx Positives, Number of Dogs” value (B. burgdorferi [4]; Day −15 (pre-infection)) was 0. For the same compound, the SNAP-4Dx positive dogs (B. burgdorferi [4]; rest of the study after Day 179) was “none positive”, the “Dogs Sero-converted to B. burgdorferi per QC6 ELISA (≧30 U/mL), (%)” value (B. burgdorferi [5]; Day 48 (pre-treatment)) was 75.0% and the “Number of Dogs Sero-converted to B. burgdorferi per QC6 ELISA (≧30 U/mL), No.” value (from here on “Number … per QC6 ELISA (≧30 U/mL), No.”) (B. burgdorferi [5]; Day 48 (pre-treatment)) was 6. The “Dogs Sero-converted to B. burgdorferi per QC6 ELISA (≧30 U/mL), (%)” value (B. burgdorferi [5]; Day 111) was 75.0%, the “Number … per QC6 ELISA (≧30 U/mL), No.” value (B. burgdorferi [5]; Day 111) was 6 and the “Dogs Sero-converted to B. burgdorferi per QC6 ELISA (≧30 U/mL), (%)” value (B. burgdorferi [5]; Day 145) was 0.0%. The “Number … per QC6 ELISA (≧30 U/mL), No.” value (B. burgdorferi [5]; Day 145) was 0, the “Dogs Sero-converted to B. burgdorferi per QC6 ELISA (≧30 U/mL), (%)” value (B. burgdorferi [5]; Day 179) was 0.0% and the “Number … per QC6 ELISA (≧30 U/mL), No.” value (B. burgdorferi [5]; Day 179) was 0. The “Dogs Sero-converted to B. burgdorferi per QC6 ELISA (≧30 U/mL), (%)” value (B. burgdorferi [5]; Day 221) was 0.0%, the “Number … per QC6 ELISA (≧30 U/mL), No.” value (B. burgdorferi [5]; Day 221) was 0 and the “Dogs Sero-converted to B. burgdorferi per QC6 ELISA (≧30 U/mL), (%)” value (B. burgdorferi [5]; Day 251) was 0.0%. The “Number … per QC6 ELISA (≧30 U/mL), No.” value (B. burgdorferi [5]; Day 251) was 0, the “Dogs Sero-converted to B. burgdorferi per QC6 ELISA (≧30 U/mL), (%)” value (B. burgdorferi [5]; Day 281) was 0.0% and the “Number … per QC6 ELISA (≧30 U/mL), No.” value (B. burgdorferi [5]; Day 281) was 0. The “Dogs Sero-converted to B. burgdorferi per QC6 ELISA (≧30 U/mL), (%)” value (B. burgdorferi [5]; Day 314) was 0.0%, the “Number … per QC6 ELISA (≧30 U/mL), No.” value (B. burgdorferi [5]; Day 314) was 0 and the “Number of dogs above infected threshold (antibody-OspC)” value [6] was “one”. The “Adverse or unexpected events” value [7] was “No adverse or unexpected events” and the Absorption [8] was “rapidly and completely absorbed”.
